System: 935938-334-R-J1-PDC spheroids with HUVEC/MSC, viability
Experiment: Anticancer human tumor 935938-334-R-J1-PDC patient-derived small intestine adenocarcinoma cell line growth inhibition [PI3K]
Conditions: for IC50: curve of first compound; for viability, T/C: stronger effect = lower value
Summary of the method: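 Three cell types, namely tumor cells, endothelial cells and mesenchymal stem cells, formed each spheroid. Combinations with four PI3K inhibitors were screened at clinically achievable concentrations decreasing by half-log, and spheroid viability was recorded.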
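Note: compound exposure lasted seven days before viability was read.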
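Throughout, for viability, T/C: percent of vehicle DMSO treated spheroid viability so 100% = untreated.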

**Q.** For `C#Cc1c(F)ccc2cc(O)cc(-c3ncc4c(N5CC6CCC(C5)N6)nc(OCC56CCCN5CC(F)C6)nc4c3F)c12` (configuration not stated) + Cc1nc(NC(=O)N2CCCC2C(N)=O)sc1-c1ccnc(C(C)(C)C(F)(F)F)c1, which IC50 (second compound 0.0316 µM) is on record?
**A.** The IC50 was 0.987 µM.

**Q.** And the IC50 (second compound 0.1 µM)?
**A.** The IC50 was 1.87 µM.

**Q.** And the IC50 (second compound 0.316 µM)?
**A.** The IC50 was 1.49 µM.

**Q.** And the IC50 (second compound 1 µM)?
**A.** Its IC50 is 0.528 µM.

**Q.** And the IC50 (second compound 3.16 µM)?
**A.** The IC50 was 0.0489 µM.

**Q.** What about the IC50 (second compound 10 µM) of the same molecule?
**A.** The IC50 was < 0.0316 µM.

**Q.** And the viability, T/C (second compound 0.0316 µM, first compound 0.0316 µM)?
**A.** The viability, T/C was 101%.

**Q.** What about the viability, T/C (second compound 0.0316 µM, first compound 0.1 µM) of the same molecule?
**A.** Its viability, T/C is 89.2%.

**Q.** And the viability, T/C (second compound 0.0316 µM, first compound 0.316 µM)?
**A.** Its viability, T/C is 107%.

**Q.** What about the viability, T/C (second compound 0.0316 µM, first compound 1 µM) of the same molecule?
**A.** The viability, T/C was 49.4%.

**Q.** And the viability, T/C (second compound 0.0316 µM, first compound 3.16 µM)?
**A.** The viability, T/C was 36.8%.

**Q.** And the viability, T/C (second compound 0.0316 µM, first compound 10 µM)?
**A.** The viability, T/C was 32.7%.

**Q.** And the viability, T/C (second compound 0.1 µM, first compound 0.0316 µM)?
**A.** Its viability, T/C is 88.8%.

**Q.** What about the viability, T/C (second compound 0.1 µM, first compound 0.1 µM) of the same molecule?
**A.** The viability, T/C was 73.6%.

**Q.** What about the viability, T/C (second compound 0.1 µM, first compound 0.316 µM) of the same molecule?
**A.** The viability, T/C was 79%.

**Q.** What about the viability, T/C (second compound 0.1 µM, first compound 1 µM) of the same molecule?
**A.** The viability, T/C was 60%.

**Q.** And the viability, T/C (second compound 0.1 µM, first compound 3.16 µM)?
**A.** Its viability, T/C is 40.7%.

**Q.** What about the viability, T/C (second compound 0.1 µM, first compound 10 µM) of the same molecule?
**A.** The viability, T/C was 27.6%.

**Q.** What about the viability, T/C (second compound 0.316 µM, first compound 0.0316 µM) of the same molecule?
**A.** Its viability, T/C is 94.4%.

**Q.** What about the viability, T/C (second compound 0.316 µM, first compound 0.1 µM) of the same molecule?
**A.** Its viability, T/C is 80%.

**Q.** What about the viability, T/C (second compound 0.316 µM, first compound 0.316 µM) of the same molecule?
**A.** The viability, T/C was 77.3%.

**Q.** What about the viability, T/C (second compound 0.316 µM, first compound 1 µM) of the same molecule?
**A.** The viability, T/C was 59.5%.

**Q.** What about the viability, T/C (second compound 0.316 µM, first compound 3.16 µM) of the same molecule?
**A.** Its viability, T/C is 33.4%.

**Q.** What about the viability, T/C (second compound 0.316 µM, first compound 10 µM) of the same molecule?
**A.** The viability, T/C was 29.4%.

**Q.** What about the viability, T/C (second compound 1 µM, first compound 0.0316 µM) of the same molecule?
**A.** The viability, T/C was 76.5%.

**Q.** And the viability, T/C (second compound 1 µM, first compound 0.1 µM)?
**A.** Its viability, T/C is 85.9%.

**Q.** And the viability, T/C (second compound 1 µM, first compound 0.316 µM)?
**A.** The viability, T/C was 60.4%.

**Q.** What about the viability, T/C (second compound 1 µM, first compound 1 µM) of the same molecule?
**A.** The viability, T/C was 35.4%.

**Q.** And the viability, T/C (second compound 1 µM, first compound 3.16 µM)?
**A.** Its viability, T/C is 29.3%.

**Q.** What about the viability, T/C (second compound 1 µM, first compound 10 µM) of the same molecule?
**A.** The viability, T/C was 21.1%.

**Q.** What about the viability, T/C (second compound 3.16 µM, first compound 0.0316 µM) of the same molecule?
**A.** Its viability, T/C is 51.5%.

**Q.** And the viability, T/C (second compound 3.16 µM, first compound 0.1 µM)?
**A.** Its viability, T/C is 46.5%.

**Q.** And the viability, T/C (second compound 3.16 µM, first compound 0.316 µM)?
**A.** The viability, T/C was 40.7%.

**Q.** What about the viability, T/C (second compound 3.16 µM, first compound 1 µM) of the same molecule?
**A.** The viability, T/C was 30.8%.

**Q.** What about the viability, T/C (second compound 3.16 µM, first compound 3.16 µM) of the same molecule?
**A.** The viability, T/C was 25.7%.

**Q.** And the viability, T/C (second compound 3.16 µM, first compound 10 µM)?
**A.** The viability, T/C was 23.4%.

**Q.** And the viability, T/C (second compound 10 µM, first compound 0.0316 µM)?
**A.** The viability, T/C was 47.8%.

**Q.** What about the viability, T/C (second compound 10 µM, first compound 0.1 µM) of the same molecule?
**A.** The viability, T/C was 33.2%.

**Q.** And the viability, T/C (second compound 10 µM, first compound 0.316 µM)?
**A.** The viability, T/C was 36.8%.

**Q.** And the viability, T/C (second compound 10 µM, first compound 1 µM)?
**A.** The viability, T/C was 27.6%.

**Q.** And the viability, T/C (second compound 10 µM, first compound 3.16 µM)?
**A.** The viability, T/C was 17.3%.

**Q.** What about the viability, T/C (second compound 10 µM, first compound 10 µM) of the same molecule?
**A.** Its viability, T/C is 16%.
